Laboratory results published in the supplement of paper PMC10883282.

How the values were obtained:
Assay in all cases: standardised AUC of viability dose-response curve (72 h) (fraction (0-1)); higher = less growth inhibition (more resistant)
KHOS-240S = tested on: KHOS-240S
How it was run: (§1)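 Sarcoma cell lines in 384-well plates were treated in triplicate for 72 h with 2.5 µl of compound dilution series (compound-plate series 10 mM to 0.0002 mM, 1:3 steps). ATPLite viability was scaled 1 (full) to 0 (none) and fitted per drug and cell line with a four-parameter log-logistic model. The standardised area under the dose-response curve in log-dose space (modified drexplorer computeAUC) runs from 1 (no response) to 0 (full response).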

SYO-1 = tested on: SYO-1
How it was run: as §1

SK-ES-1 = tested on: SK-ES-1
How it was run: as §1

SW1353 = tested on: SW1353
How it was run: as §1

HT1080 = tested on: HT1080
How it was run: as §1

G401 = tested on: G401
How it was run: as §1

KHOS-NP = tested on: KHOS-NP
How it was run: as §1

MES-SA = tested on: MES-SA
How it was run: as §1

SW872 = tested on: SW872
How it was run: as §1

SK-LMS-1 = tested on: SK-LMS-1
How it was run: as §1

RD-ES = tested on: RD-ES
How it was run: as §1

SW684 = tested on: SW684
How it was run: as §1

HS729 = tested on: HS729
How it was run: as §1

RD = tested on: RD
How it was run: as §1

A204 = tested on: A204
How it was run: as §1

SW982 = tested on: SW982
How it was run: as §1

VA-ES-BJ = tested on: VA-ES-BJ
How it was run: as §1

Structure (SMILES)	standardised AUC (KHOS-240S)	standardised AUC (SYO-1)	standardised AUC (SK-ES-1)	standardised AUC (SW1353)	standardised AUC (HT1080)	standardised AUC (G401)	standardised AUC (KHOS-NP)	standardised AUC (MES-SA)	standardised AUC (SW872)	standardised AUC (SK-LMS-1)	standardised AUC (RD-ES)	standardised AUC (SW684)	standardised AUC (HS729)	standardised AUC (RD)	standardised AUC (A204)	standardised AUC (SW982)	standardised AUC (VA-ES-BJ)
COC(=O)[C@@]1(O)C[C@H]2O[C@]1(C)n1c3ccccc3c3c4c(c5c6ccccc6n2c5c31)C(=O)NC4 [K-252A]	0.717	0.668	0.543	0.766	0.818	0.745	0.776	0.631	0.68	0.666	0.647	0.774	0.756	0.81	0.617	0.628	0.7
CCC(=O)N1CC[C@H](Nc2ncnc3c2CN(c2cnc(OC)c(C(F)(F)F)c2)CC3)C1 [LENIOLISIB]	0.962	0.923	0.96	0.934	0.961	0.929	0.97	0.955	0.947	0.927	0.95	0.83	0.935	0.988	0.929	0.955	0.955
C[C@]12O[C@H](C[C@]1(O)CO)n1c3ccccc3c3c4c(c5c6ccccc6n2c5c31)CNC4=O [LESTAURTINIB]	0.72	0.656	0.526	0.764	0.802	0.821	0.762	0.64	0.655	0.721	0.62	0.805	0.762	0.821	0.646	0.614	0.667
N#CCNC(=O)c1ccc(-c2ccnc(Nc3ccc(N4CCOCC4)cc3)n2)cc1 [MOMELOTINIB]	0.91	0.839	0.815	0.893	1	0.889	0.979	0.863	0.898	0.941	0.944	0.907	0.922	0.994	0.829	0.861	0.964
Cc1ccc(Nc2nccc(N(C)c3ccc4c(C)n(C)nc4c3)n2)cc1S(N)(=O)=O [PAZOPANIB]	0.951	0.78	0.966	0.98	0.999	0.914	0.978	0.964	0.984	0.974	0.988	0.99	0.91	0.997	0.699	0.987	1
CCN1C(=O)N(c2c(F)c(OC)cc(OC)c2F)Cc2cnc3[nH]c(CN4CCOCC4)cc3c21 [PEMIGATINIB]	0.88	0.804	0.839	0.861	0.97	0.696	0.991	0.822	0.946	0.924	0.942	0.951	0.748	0.938	0.685	0.889	0.951
COc1cc(OC)c(/C=C/S(=O)(=O)Cc2ccc(OC)c(NCC(=O)O)c2)c(OC)c1 [RIGOSERTIB]	0.636	0.827	0.584	0.822	0.707	0.852	0.805	0.681	0.854	0.719	0.644	0.851	0.882	0.712	0.779	0.748	0.755
COCCNc1cc(NC(=O)N2CCCc3cc(CN4CCN(C)CC4=O)c(C=O)nc32)ncc1C#N [ROBLITINIB]	0.983	0.959	0.976	0.995	0.996	0.979	0.994	0.975	1	0.988	0.978	0.994	0.971	0.992	0.963	0.997	0.994
Cc1cc2cc(Oc3ccnc(Nc4cccc(CS(=O)(=O)NCCN(C)C)c4)n3)ccc2[nH]1 [SULFATINIB]	0.931	0.759	0.955	0.97	0.99	0.909	0.982	0.95	0.96	0.965	0.962	0.966	0.874	0.964	0.805	0.924	0.987
CCN(CC)CCNC(=O)c1c(C)[nH]c(/C=C2\C(=O)Nc3ccc(F)cc32)c1C [SUNITINIB]	0.815	0.648	0.716	0.855	0.864	0.907	0.88	0.829	0.813	0.908	0.755	0.876	0.804	0.836	0.558	0.754	0.881
Cn1ncnc1[C@H]1c2n[nH]c(=O)c3cc(F)cc(c23)N[C@@H]1c1ccc(F)cc1 [TALAZOPARIB]	0.86	0.48	0.376	0.836	0.83	0.817	0.919	0.675	0.826	0.905	0.433	0.956	0.936	0.832	0.79	0.749	0.725
O=c1sn(-c2cccc3ccccc23)c(=O)n1Cc1ccccc1 [TIDEGLUSIB]	0.983	0.962	0.975	0.966	0.999	0.951	0.99	0.971	0.976	0.99	0.985	0.964	0.913	0.996	0.994	0.993	0.972
O=C1NC(=O)[C@@H](c2cn3c4c(cccc24)CCC3)[C@@H]1c1c[nH]c2ccccc12 [TIVANTINIB]	0.782	0.804	0.718	0.879	0.796	0.865	0.867	0.754	0.859	0.79	0.768	0.883	0.896	0.789	0.844	0.792	0.829
Cc1[nH]c(/C=C2\C(=O)Nc3ccc(F)cc32)c(C)c1C(=O)NCCN1CCCC1 [TOCERANIB]	0.841	0.632	0.795	0.926	0.908	0.923	0.931	0.82	0.864	0.891	0.778	0.937	0.739	0.957	0.669	0.833	0.918
CC(C)Oc1ccc(-c2nn([C@@H](C)c3oc4ccc(F)cc4c(=O)c3-c3cccc(F)c3)c3ncnc(N)c23)cc1F [UMBRALISIB]	0.983	0.97	0.985	0.949	0.984	0.983	0.994	0.989	0.987	0.966	0.993	0.937	0.939	0.998	0.969	1	0.982
CC[C@@H]1CN(C(=O)NCC(F)(F)F)C[C@@H]1c1cnc2cnc3[nH]ccc3n12 [UPADACITINIB]	0.956	0.913	0.988	0.945	0.976	0.961	0.975	0.977	0.951	0.974	0.994	0.984	0.915	0.993	0.97	0.979	0.962
Clc1ccc(Nc2nnc(Cc3ccncc3)c3ccccc23)cc1 [VATALANIB]	0.978	0.937	0.998	0.979	1	0.971	1	0.998	0.994	0.975	0.99	0.988	0.989	0.995	0.864	0.997	1
